Data on two compounds can be found in patent publication US12257246B2, “Composition of 2,4,6-trifluoro-n-[6-(1-methyl-piperidin-4-carbonyl)-pyridin-2-yl[-benzamide” (CoLucid Pharmaceuticals, Inc., priority 2009, dated 2025).

The test system of one experiment is migraine. The note with it: in vivo; cited from earlier work.
Experiment [1] has as its system rabbit saphenous vein. The note with it: EC50 divided by %max KCl.
Experiment [2] concerns rabbit saphenous vein. Kind of experiment: cells. The note with it: Oryctolagus cuniculus, read-out: saphenous vein contraction EC50.

Regarding `CN1CCC(c2c[nH]c3ccc(NC(=O)c4ccc(F)cc4)cc23)CC1` [LY334370], the “efficacy in acute treatment of migraine” value with migraine is on record as “proved effective”.

By EC50 is commonly meant the concentration needed to bring the measured effect to its halfway point. `CNS(=O)(=O)Cc1ccc2[nH]cc(CCN(C)C)c2c1` [sumatriptan]: the “corrected vasoconstriction EC50” value in the experiment on rabbit saphenous vein [1] came to 0.0103 µM. Further, in the experiment with rabbit saphenous vein [2], the EC50 came to 0.66 µM.
